{"source": "patent US20230285365A1", "about": "“USE OF A DHODH INHIBITOR COMPOUND IN COMBINATION CANCER THERAPY” (Servier Pharmaceuticals LLC, priority 2020, published 2023)", "test_system": "mouse lymphoma models (DLBCL, MCL, Burkitt lymphoma, Hodgkin lymphoma, undifferentiated lymphoma)", "test": "Growth inhibition study in tumor-bearing mice, various mouse lymphoma models", "assay_type": "in vivo", "conditions": "doses as in treatment table (Compound 1 100 mg/kg BID, rituximab 20 mg/kg BIW, CHOP), FIGS. 1-3", "description": "See e.g., FIGS. 1-3, which show complete regression of certain diffuse large B-cell lymphoma (DLBCL), mantle cell lymphoma (MCL), Burkitt lymphoma, Hodgkin lymphoma, and undifferentiated lymphoma mouse models following treatment with Compound 1 and R-CHOP.\nGrowth Inhibition Study of Compound 1 with R-CHOP in Tumor-Bearing Mice.\nMice were implanted subcutaneously with 5×10^6 to 2×10^7 cells as required for each model. Tumor volumes were monitored twice a week until tumors reach approximately 150 mm^3. Once tumor burden was at this level, mice were randomized and treated with the following.\nAt the study end, tumor tissue, and plasma were collected 1 hr. post final dose of Compound 1. Treatment was well tolerated. FIGS. 1-3 show the percent change in tumor volume for the mouse models treated. […] A similar result was observed across the multiple subsets of lymphoma tested."}
{"substance": "rituximab", "values": [{"measurement": "tumor response (percent change in tumor volume)", "result": "tumor growth continued"}]}
